Experimental data from paper PMC9321043, “Synthesis, Structure–Activity Relationships, and Parasitological Profiling of Brussonol Derivatives as New Plasmodium falciparum Inhibitors” (Pharmaceuticals, 2022).

How the values were obtained:
[1] = system: P. falciparum (3D7 strain); test: In vitro antiplasmodial activity, P. falciparum blood-stage parasites, SYBR Green I; type: cell-based, Plasmodium falciparum; conditions: Plasmodium falciparum, 3D7, 3D7 strain, Table 2 strain panel; read-out: IC50
Procedure: The P. falciparum strains were cultivated in human blood cells (hRBC) O^+, while P. knowlesi was cultivated in rhesus red blood cells (rRBC) as described. P. falciparum complete RPMI (consisting of RPMI-1640, supplemented with 0.2% NaHCO3, 25 mM HEPES (pH 7.4), 11 mM D-glucose, 10 mg/L hypoxanthine, 25 mg/L gentamicin, and 0.5% (m/v) AlbuMAX II). The parasitemias of these cultures were maintained below 10% with 2.5% hematocrit. P. knowlesi complete RPMI (consisting of RPMI-1640 supplemented with 25 mM HEPES, […] hypoxanthine, 0.26% NaHCO3, 10 mg/L gentamicin, and 1% Albumax II). This culture was maintained with RBCs up to 5% hematocrit. The culture medium was changed daily, and all cultures were maintained under a 90% N2/5% CO2/5% O2 gas mixture at 37 °C. All compounds were purchased from Sigma-Aldrich (Cotia, Brazil).
The antiplasmodial activity of brussonol and derivatives was evaluated against P. falciparum blood parasites 3D7(chloroquine-sensitive). The parasites were synchronized through sterile 5% (m/v) D-sorbitol treatment over 10 min at 37 °C for the enrichment of ring stages. Centrifugation 600× g over 5 min was used to pellet the cultures. The parasitemia was determined by microscope analysis of thin blood smears stained with Giemsa 10% (v/v) after fixation with methanol. The initial parasitemia was calculated for 1000 red blood cells (RBCs), and cultures were diluted to 0.5% parasitemia and 2% hematocrit by the addition of the appropriate volumes of blood and medium. A total of 180 µL aliquots of parasites were distributed into 96-well plates followed by the addition of 20 µL of previously prepared aliquots of ten-fold concentrated compounds, the range of concentrations tested was 10–1.53 µM. Negative and positive control wells, which correspond to non-parasitized erythrocytes and parasite cultures in the absence of compounds, were set in parallel. The DMSO concentration was maintained below 0.05% (v/v) for all compounds except for brussonol, which was 0.5%. The plates were incubated for 72 h at 37 °C in a humidified incubator with a gas mixture of 90% N2, 5% O2, and 5% CO2. Each test was performed in duplicates, and the results were compared with the control cultures. Once completed incubation, the culture medium was removed, and the cells were resuspended in 100 µL PBS (116 mM NaCl, 10 mM NaH2PO4, 3 mM KH2PO4) and lysed with 100 µL lysis buffer (20 mM Tris base, 5 mM EDTA, 0.0008% (v/v) Triton X-100, 0.008% (m/v) saponin, pH 8.0) containing 0.002% (v/v) SYBR Green I. Plates were incubated for 30 min at room temperature, and a SpectraMAX Gemini EM plate reader (Molecular Devices Corp., Sunnyvale, CA) was used to determine the fluorescence corresponding to parasitic density (excitation at 485 nm, emission at 535 nm). The half-maximal inhibitory concentration (IC50^Pf) was determined by non-linear regression analysis of the resulting concentration–response curve using the software GraphPad Prism version 8.0.1 for Windows, GraphPad Software, San Diego, California USA, www.graphpad.com, accessed on 3 March 2022”.

P. falciparum K1 strain = test: Resistance assessment, K1 strain; type: cell-based; conditions: Plasmodium falciparum
P. falciparum Dd2 strain = test: Resistance assessment, Dd2 strain; type: cell-based; conditions: Plasmodium falciparum
[2] = system: P. falciparum TM90C6B strain; test: Resistance assessment, TM90C6B strain; type: cell-based; conditions: Plasmodium falciparum
[3] = system: P. falciparum 3D7^r_MMV848 strain; test: Resistance assessment, 3D7r-MMV848 strain; type: cell-based; conditions: Plasmodium falciparum
P. falciparum = test: Speed-of-action assay; type: cell-based, Plasmodium falciparum; conditions: for speed of action: IC50 compared after 24, 48 and 72 h of drug exposure; for time of parasite death (morphological development, pyknotic nuclei): highest concentration evaluated, Giemsa smears at 0, 24, 48, 72 h
Procedure: The speed-of-action assay assesses the inhibitory activity of the tested compounds after 24, 48, and 72 h of drug exposure. […] Moreover, to confirm the speed-of-action, the morphological development of the parasite in parallel with the IC50 assessment was verified. The parasites in the negative control wells developed according to the expected timeline (Figure 5a). […] Brussonol caused parasite death within the first 24 h of incubation as observed for artesunate (Figure 5a).
In this method, three 96-well plates were prepared by adding 180 µL of the parasite’s inoculum with 0.5% parasitemia and 2% hematocrit. A serial dilution of the compounds was added to each plate; the starting concentration for brussonol was 6× IC50, while for artesunate and pyrimethamine (fast- and slow-acting controls, respectively) were 10× IC50. In addition, a positive and negative control, which corresponded to parasite cultures with no addition of inhibitor and non-parasitized erythrocytes, respectively, were used for the parasite’s control growth. Each plate was treated for a different period (24, 48, or 72 h), and the first two plates were washed twice with fresh medium to remove the inhibitor, followed by incubation of 48 and 24 h, respectively. […] A statistical analysis using a one-way ANOVA test was done to compare each time point using GraphPad Prism version 8.0.1 for Windows, GraphPad Software, San Diego, California USA, www.graphpad.com, accessed on 1 February 2022. In parallel, the morphological development of the parasite under the compounds’ pressure was assessed by adding the compounds tested at the highest concentration evaluated. Blood smears of each well were made and stained at time points 0, 24, 48, and 72 h.

hemozoin formation = test: Hemozoin formation inhibition assay; type: biochemical; conditions: hemin 25 µM, pH 4.8, 4 h, one experiment in triplicate
Procedure: 2. Hemozoin Formation Inhibition Assay
The hemozoin formation inhibition assay was performed as described previously.12 Briefly, serial 1:3 dilutions, in a 96‐well plate, wit h brussonol were made in a final volume of 20 μL in a concentration 10 times higher than the final concentration of the assay. Secondly, 90 μ L of freshly prepared hemin (at a final concentration of 25 μM) solution in 1M NaOAc/HOAc buffer pH 4.8 were added followed by addition of 90 μ L of 5.4 mg/L Tween 20 solution freshly prepared. The plates were let to stand for 4 hours at 37 °C followed by resuspension with multichannel pippete and read at 415 and 630 nm using a SpectraMAX Plus 384 plate reader (Molecular Devices Corp., Sunnyvale, CA).
Due to the absence of enough compound, this experiment wa s performed only once, but with internal triplicate. Chloroquine (CQ) and pyrimethamine (PYR) were used as positive and negative control of inhibition, respectively.
Inhibition (%) = 100 – 100 x [(Aco ntro l – Asample) / (Acontrol - Amin)] Acontrol is the difference of the absorbance at 415 and 630 nm of the negative control (Hemin +, Tween 20 ‐, Compound ‐); Amin is the difference of the absorbance at 415 and 630 nm of the positive control (Hemin +, Tween 20 +, Compound ‐ ); Asample is the difference of the absorbance at 415 and 630 nm of the sample. The hemozoin formation inhibition assay was performed to evaluate if brussonol act inhibiting hemozoin formation in P. falciparum. CQ, which is a well‐known inhibitor of hemozoin […]
Figure S1. Hemozoin formation inhibition assay. Different concentrations of CQ (black triangles), PYR (red squares) and brussonol (blue circles) were incubated with heme in triplicates. Th e absorbance was recorded at 415/630 nm to determine the hemozoin formation inhibition. […]

| SMILES | IC50 [1] [nM] | IC50 (P. falciparum K1 strain) [nM] | IC50 (P. falciparum Dd2 strain) [nM] | IC50 [2] [nM] | IC50 [3] [nM] | speed of action (P. falciparum) | time of parasite death (morphological development, pyknotic nuclei) (P. falciparum) | hemozoin formation inhibition (in words) (hemozoin formation) |
| --- | --- | --- | --- | --- | --- | --- | --- | --- |
| C[C@H]1[C@H](OC(=O)CCC(=O)O)O[C@@H]2O[C@@]3(C)CC[C@H]4[C@H](C)CC[C@@H]1[C@@]24OO3 [artesunate] | 8 ± 4 | 7 ± 3 | 11 ± 8 | 6 ± 2 | 13 ± 8 | fast-acting inhibitor | ≤ 24 h | – |
| O=C1C(O)=C([C@H]2CC[C@H](c3ccc(Cl)cc3)CC2)C(=O)c2ccccc21 [atovaquone, reference compound] | 0.7 ± 0.3 | – | – | 3000 ± 1000 | – | – | – | – |
| CCc1nc(N)nc(N)c1-c1ccc(Cl)cc1 [pyrimethamine] | 60 ± 10 | > 10000 | > 10000 | – | – | slow-acting inhibitor | at the 48 and 72 h time points | no inhibition profile up to 1.4 mM |
